Test results from paper PMC11005685, “Identification of Potent siRNA Delivery Peptides Using Computer Modeling” (Advanced Science, 2024).

Assays:
[1] = system: mouse liver cells; assay: scRNA-seq of liver after vector injection; assay type: in vivo
Procedure: (§1) Freshly tissues were washed in Hanks’ balanced salt solution, and cut into small pieces on ice, then digested with collagenase I and IV. After incubated for 30 min at 37°C with continuous shaking. The shredded tissues were filtered the 70 µm nylon mesh, and the obtained cells were centrifuged at 4°C. Red blood lysis buffer added in pelleted cells and shaked up and down 10 times, and then washed three times, finally resuspended in buffer (added 0.04% BSA in PBS). After removing dead cells in suspensions by flow cytometry, the process of single‐cell RNA‐seq following the standard instructions.
The generation of raw counts matrices was accomplished using CellRanger software, version 6.0.0, referencing the GRCm38 mouse genome. To attain a data set purified of doublets, the Scrublet software was employed. Subsequently, the filtered counts matrices underwent loading into the R software (version 4.0.3), facilitated by the Seurat package. Cells were meticulously curated to exclude those expressing either an excessive (>7000) or an insufficient (<200) number of genes, or presenting high mitochondrial counts (>20%). The raw data were then subjected to normalization using the LogNormalize method. The selection of the top 2000 highly variable genes was carried out with Seurat's FindVariableFeatures function, applying the vst method as the basis for further analysis. To harmonize the batch effects, the IntegrateData function in Seurat was employed. Dimensionality reduction was realized through Principal Component Analysis (PCA), with the leading 30 principal components (PCs) forming the basis for Uniform Manifold Approximation and Projection (UMAP) performance. Cluster identification ensued using Seurat's FindClusters function, setting the resolution at 0.5. Marker gene elucidation was achieved using the differential expression analysis through the Wilcox rank‐sum test, as implemented in the FindAllMarkers function (fold change≥2 and adjusted P≤0.05). Cell clusters underwent annotation against known cell type markers to ascertain their identity. […]

[2] = system: mouse lung cells; assay: scRNA-seq of lung after vector injection; assay type: in vivo
Procedure: as §1
The generation of raw counts matrices was accomplished using CellRanger software, version 6.0.0, referencing the GRCm38 mouse genome. To attain a data set purified of doublets, the Scrublet software was employed. Subsequently, the filtered counts matrices underwent loading into the R software (version 4.0.3), facilitated by the Seurat package. Cells were meticulously curated to exclude those expressing either an excessive (>7000) or an insufficient (<200) number of genes, or presenting high mitochondrial counts (>20%). The raw data were then subjected to normalization using the LogNormalize method. The selection of the top 2000 highly variable genes was carried out with Seurat's FindVariableFeatures function, applying the vst method as the basis for further analysis. To harmonize the batch effects, the IntegrateData function in Seurat was employed. Dimensionality reduction was realized through Principal Component Analysis (PCA), with the leading 30 principal components (PCs) forming the basis for Uniform Manifold Approximation and Projection (UMAP) performance. Cluster identification ensued using Seurat's FindClusters function, setting the resolution at 0.5. Marker gene elucidation was achieved using the differential expression analysis through the Wilcox rank‐sum test, as implemented in the FindAllMarkers function (fold change≥2 and adjusted P≤0.05). Cell clusters underwent annotation against known cell type markers to ascertain their identity. Akin analyses focusing on subclusters of Kupffer cells and Neutrophils were conducted applying a similar methodological framework. Recognition of differentially expressed genes between two groups was facilitated by the Wilcox rank‐sum test via Seurat's FindMarkers function (fold change≥2 and adjusted P≤0.05). Data visualization was executed utilizing the ggplot2 package within the R software. Functional annotations and pathway enrichment analyses, considering the Gene Ontology (GO), were performed with the clusterProfiler package, deeming terms statistically significant at a P≤0.05.

In the case of `CCCCCCCC/C=C\CCCCCCCC(=O)OCC(C[N+](C)(C)C)OC(=O)CCCCCCC/C=C\CCCCCCCC` (stereo not shown) [DOTAP], the “differentially expressed genes in Kupffer cells” value ([1]; liver, vs untreated (NS), total number of genes) is reported as 7, the “differentially expressed genes in liver neutrophils” value ([1]; liver, vs untreated, total number of DEGs) is reported as 45 and the “change in cellular composition of liver” value ([1]; vs normal control (saline-injected)) is reported as “sharp increase in the number of neutrophils and a decrease in the number of immune cells”. For the same molecule, the “alveolar macrophages distributed in the Sirpa+ cluster” value ([2]; lung scRNA-seq subclustering) was 73%, the “differentially expressed genes in lung neutrophils” value ([2]; lung, vs untreated, total number of DEGs) was 18 and the “differentially expressed genes in alveolar macrophages” value ([2]; lung, vs untreated, total number of genes) was 12. For the same molecule, the “change in cellular composition of lung” value ([2]; vs untreated group) was “sharp increase in the number of neutrophils and alveolar macrophages and a decrease in the number of immune cells and endothelial cells”.
